Measurements: US10300058B2, “Tyrosine kinase inhibitor and uses thereof” (Xuanzhu Pharma Co., Ltd., priority 2014, dated 2019)
Read-outs that look alike come from different tables or passages of the source.

Experiments:
[1] = test system: H1975 human non-small cell lung cancer xenograft; test: Pharmacodynamics in vivo, H1975 xenograft tumor-bearing nude mice; design: species or system BALB/c nude mouse; conditions: PO; for RTV (relative tumor volume) / TV (tumor volume) / Body weight After administration / Body weight Before administration: mean ± standard error
Text: Genus: Rodent, Line: BALB/c nude, age: 6-8 weeks, gender: female, body weight: 18-22 g. Provider of experimental animals: Beijing Ankaiyibo Biological Technology Co. Ltd., Production license No. SCXK(Jing) 2012-0009. Quality Certificate No. 11402400000256 […] The tumor cells in logarithmic growth phase were used in tumor inoculation in vivo. […] When the tumor grew into a volume of about 100 mm^3, the animals were grouped and administered, 8 mice per group. […] Test compound solutions were prepared immediately before administration every day. [table] Vernier caliper was used to measure the volume of tumor twice a week. The long diameter and short diameter of tumor were measured. The volume was calculated by the formula: volume=0.5×long diameter×short diameter^2. According to the measurement results, relative tumor volume (RTV) and relative tumor volume increasing rate (T/C) were calculated. RTV=Vt/V0, wherein Vt is the average value of tumor volume on day t after grouping and administration, V0 is the average value of tumor volume at the day when grouping. T/C=TRTV/CRTV×100%, wherein TRTV is the RTV in the treatment group, and CRTV is the RTV in the solvent control group. […] One-Way ANOVA test was carried out by SPSS17.0 statistic software. Tumor volume was analysed in statistics among groups. P<0.05 is indicative of significant difference.

[2] = Pharmacokinetics in nude mouse; assay type: in vivo; conditions: female, BALB/c nude, plasma; for bioavailability: read-out: F (absolute bioavailability)
Procedure: Test animal: female nude mouse (BALB/c), weight: 20-25 g/mouse.
Solvent for intraveneous injection (iv): 5% DMSO+10% PEG400+85% (28% HP-β-CD)
Solvent for intragastric administration (po): 2% HPC+0.1% Tween 80
0.1283 mL and 0.1059 mL 1M hydrochloric acid solution were separately added to adjust pH to 4.
Compound 2, 27: Compound 27 (3.18 mg) and Compound 2 (3.17 mg) were weighed, respectively, and solvent for intraveneous injection was added to prepare a clear and transparent solution at a theoretical concentration of 1.0 mg/mL.
After homogeneous dispersion, a suspension at a theoretical concentration of 1.0 mg/mL was obtained.
Collection time point: 0.083 h, 0.25 h, 0.5 h, 1 h, 2 h, 4 h, 6 h, 8 h after administration.
60 μL whole blood was collected from intraocular canthus at each time point, and was centrifuged at 8000 r/min for 6 min in a low-temperature centrifuge to separate plasma; the plasma was stored in a refrigerator at −80° C.
The plasma sample of Compound 2 was analyzed by means of protein precipitation: 10 μL plasma was transferred to a 1.5 mL EP tube, 10 μL blank plasma was added, and the mixture was mixed homogeneously under vortexing. 200 μL internal standard (acetonitrile solution containing 25 ng/mL CNX-2006) was added; the resultant mixture was vortexted for 3 min, and then centrifuged at 12000 rpm for 5 min; 150 μL supernatant was accurately taken, to which 50 μL purified water was added. The resultant mixture was vortexed for 3 min and analyzed by LC-MS/MS.

EGFR (d746-750)-T790M = EGFR (d746-750)-T790M (Homo sapiens (Human), UniProt P00533, DEL746-750/T790M); test: Mobility Shift Assay, in vitro enzyme-inhibiting activity, EGFR (d746-750)-T790M; assay type: biochemical; conditions: Table 8; Km ATP; read-out: IC50 EGFR (d746-750)-790M
Chain of EGFR (d746-750)-T790M (P00533 other isoform, or with tags, fused parts or gaps T790M/del 1-668/del 746-750 limits assumed): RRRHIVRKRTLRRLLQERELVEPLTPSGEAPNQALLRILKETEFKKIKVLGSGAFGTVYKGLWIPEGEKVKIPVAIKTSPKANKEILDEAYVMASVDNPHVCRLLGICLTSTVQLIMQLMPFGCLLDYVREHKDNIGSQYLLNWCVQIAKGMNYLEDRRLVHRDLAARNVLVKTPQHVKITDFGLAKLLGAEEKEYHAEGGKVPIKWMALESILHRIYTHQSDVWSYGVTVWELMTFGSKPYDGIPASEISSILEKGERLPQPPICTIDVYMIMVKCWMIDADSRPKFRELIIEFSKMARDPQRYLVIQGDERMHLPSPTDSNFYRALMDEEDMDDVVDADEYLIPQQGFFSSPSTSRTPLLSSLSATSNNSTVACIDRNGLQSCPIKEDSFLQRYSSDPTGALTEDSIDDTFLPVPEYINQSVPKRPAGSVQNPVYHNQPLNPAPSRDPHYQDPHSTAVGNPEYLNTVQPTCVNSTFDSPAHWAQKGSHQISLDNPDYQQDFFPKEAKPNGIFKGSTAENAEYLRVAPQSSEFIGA
Procedure: 1. Preparation of Reagents
2. Preparation of a Compound Solution
(1) To the second well of a 96-well plate, 5 μL 10 mM compound (dissolved in DMSO) was added, and 95 μL 100% DMSO was added to prepare 100 μL 0.5 mM compound.
(2) To other wells, 60 μL 100% DMSO was added. 20 μL compound from the second well was added to the third well, and 4-fold dilution was further performed to get 10 diluted concentrations.
(3) To the first well and the twelfth well of the 96-well plate, 100 μL 100% DMSO was separately added, and the two wells were used as control wells.
(4) 10 μL from each well of the 96-well plate was added to another 96-well plate, and 90 μL 1-fold kinase buffer was added.
(5) 5 μL from the 96-well plate was added to another 384-well plate, for example, transferred from A1 well of the 96-well plate to A1 and A2 wells of the 384-well plate, and transferred from A2 well of the 96-well plate to A3 and A4 wells of the 384-well plate, and so on.
To 384-well plate, 10 μL 2.5-fold enzyme solution was added, and incubated at room temperature for 10 min.
(5) Kinase reaction and stop
After incubation at 28° C. for a period of time (depending on kinase), 25 μL stop solution was added.
4. Data on percent conversion was read by Caliper.
(1) Data on enzyme activity was obtained by Caliper program;
(2) Inhibition rate of enzyme activity was calculated from the data on enzyme activity by the following formula: Inhibition rate(%)=(maximal value−the measured value of a test compound)/(maximal value-minimal value)×100,
wherein, the maximal value represents the measured value of DMSO control; and the minimal value represents the measured value of blank control.
(3) Calculation of IC50 value by XLFit excel.

[3] = Table 18, 10 mg/kg, QD × 18, 23 days after inoculation
[4] = Table 18, 30 mg/kg, QD × 18, 23 days after inoculation
[5] = po, 7.6 mg/kg, solid dispersed sample in pH 4.0 buffer
[6] = Table 17, 100 mg/kg, 19 days after inoculation

Question: For `C=CC(=O)Nc1cccc(Nc2nc(Nc3ccc(C4CCN(C(C)=O)CC4)cc3OC)ncc2C(F)(F)F)c1` [Compound 2, N-(3-((2-((4-(1-acetylpiperidin-4-yl)-2-methoxyphenyl)amino)-5-(trifluoromethyl)pyrimidin-4-yl)amino)phenyl)acrylamide], which “T/C (relative tumor volume increasing rate)” value ([1]; Table 18, 10 mg/kg, QD × 18) is on record?
Answer: The value was 56.1%.

Question: And the “TGI (tumor growth-inhibiting rate)” value ([1]; Table 18, 10 mg/kg, QD × 18)?
Answer: Its value is 43.9%.

Question: What about the “RTV (relative tumor volume)” value [1, 3] of the same compound?
Answer: The value was 630 ± 105%.

Question: What about the “TV (tumor volume)” value [1, 3] of the same compound?
Answer: Its value is 588 ± 81 mm^3.

Question: And the “Body weight After administration” value ([1]; Table 18, 10 mg/kg, QD × 18)?
Answer: Its value is 22.6 ± 0.3 g.

Question: What about the “Body weight Before administration” value ([1]; Table 18, 10 mg/kg, QD × 18) of the same compound?
Answer: The value was 21.1 ± 0.4 g.

Question: What about the “T/C (relative tumor volume increasing rate)” value ([1]; Table 18, 30 mg/kg, QD × 18) of the same compound?
Answer: Its value is 45.7%.

Question: And the “TGI (tumor growth-inhibiting rate)” value ([1]; Table 18, 30 mg/kg, QD × 18)?
Answer: Its value is 54.3%.

Question: What about the “RTV (relative tumor volume)” value [1, 4] of the same compound?
Answer: The value was 513 ± 54%.

Question: What about the “TV (tumor volume)” value [1, 4] of the same compound?
Answer: Its value is 489 ± 49 mm^3.

Question: What about the “Body weight After administration” value ([1]; Table 18, 30 mg/kg, QD × 18) of the same compound?
Answer: The value was 22.6 ± 0.5 g.

Question: And the “Body weight Before administration” value ([1]; Table 18, 30 mg/kg, QD × 18)?
Answer: Its value is 21.6 ± 0.4 g.

Question: What about the AUC(0-t) ([2]; iv, 5 mg/kg) of the same compound?
Answer: The AUC(0-t) was 6300 ng·h/mL.

Question: What about the clearance ([2]; iv, 5 mg/kg) of the same compound?
Answer: Its clearance is 13.2 mL/min/kg.

Question: What about the AUC(0-t) ([2]; po, 10 mg/kg) of the same compound?
Answer: The AUC(0-t) was 5660 ng·h/mL.

Question: And the bioavailability ([2]; po, 10 mg/kg)?
Answer: The bioavailability was 48%.

Question: With `C=CC(=O)Nc1cccc(Nc2nc(Nc3ccc(C4CCN(S(C)(=O)=O)CC4)cc3OC)ncc2C(F)(F)F)c1` [Compound 27, N-(3-((2-((2-methoxy-4-(1-(methylsulfonyl)piperidin-4-yl)phenyl)amino)-5-(trifluoromethyl)pyrimidin-4-yl)amino)phenyl)acrylamide] as the compound, how does the IC50 (EGFR (d746-750)-T790M) read?
Answer: Its IC50 is 3.6 nM.

Question: And the AUC(0-t) ([2]; iv, 5 mg/kg)?
Answer: Its AUC(0-t) is 11600 ng·h/mL.

Question: And the clearance ([2]; iv, 5 mg/kg)?
Answer: The clearance was 7.17 mL/min/kg.

Question: What about the AUC(0-t) [2, 5] of the same compound?
Answer: Its AUC(0-t) is 9790 ng·h/mL.

Question: What about the bioavailability [2, 5] of the same compound?
Answer: The bioavailability was 56%.

Question: Which results are given for `C=CC(=O)Nc1cccc(Nc2nc(Nc3ccc(N4CCC(N5CCOCC5)CC4)cc3OC)ncc2C(F)(F)F)c1` [Compound 28, N-(3-((2-((2-methoxy-4-(4-morpholinopiperidin-1-yl)phenyl)amino)-5-(trifluoromethyl)pyrimidin-4-yl)amino)phenyl)acrylamide]?
Answer: T/C (relative tumor volume increasing rate) ([1]; Table 17, 100 mg/kg): 4.7%; TGI (tumor growth-inhibiting rate) ([1]; Table 17, 100 mg/kg): 95.3%; RTV (relative tumor volume) [1, 6]: 46 ± 6%; TV (tumor volume) [1, 6]: 53 ± 7 mm^3; Body weight After administration ([1]; Table 17, 100 mg/kg): 21.5 ± 0.3 g; Body weight Before administration ([1]; Table 17, 100 mg/kg): 20.8 ± 0.4 g; IC50 (EGFR (d746-750)-T790M): 0.8 nM
